{"source": "patent US7105566B2", "about": "“Methods of treatment during vascular procedures” (Allergan, Inc., priority 2002, dated 2006)", "system": "female ZDF rats", "test": "Serum triglycerides and cholesterol in female ZDF rats, Compound 1 and Compound 2 at 10 mg/kg; for Triglycerides day 1, 6 hr, Mean: unit not given here; for Triglycerides day 1, 6 hr: unit not given here", "format": "in vivo, rat", "settings": "10 mg/kg oral", "procedure": "A similar experiment to that described above was performed. Briefly, female ZDF rats (12 weeks old) were fed either a PM 5008 diet or a GMI 13004 diet. Control vehicle consisted of 2% DMSO and 98% corn oil. Compound 1 and Compound 2 were administered at a dosage of 10 mg/kg body weight. Dosings were administered at approximately 8 a.m. Serum was collected on the first day of dosing at approximately 8 a.m. (Day 1, 0 hour) and 2 p.m. (Day 1, 6 hour); the fourth day of dosing at approximately 8 a.m. (Day 4, 0 hour); and the last day of dosing at approximately 8 a.m. (Day 7, 0 hour) and 2 p.m. (Day 7, 6 hour). The levels of triglycerides and cholesterol in the serum samples were measured. The results are shown in Table 2 and are illustrated graphically in FIGS. 3A and 3B.", "key": {"[1]": {"settings": "GMI 13004 diet, group mean of 5 rats, first day of dosing, 2 p.m."}, "[2]": {"settings": "GMI 13004 diet, group mean of 5 rats, first day of dosing, about 8 a.m. (baseline)"}, "[3]": {"settings": "GMI 13004 diet, group mean of 5 rats, fourth day of dosing, 8 a.m."}, "[4]": {"settings": "GMI 13004 diet, group mean of 5 rats, last day of dosing, 2 p.m."}, "[5]": {"settings": "GMI 13004 diet, group mean of 5 rats, last day of dosing, 8 a.m."}, "[6]": {"settings": "GMI 13004 diet, individual animals, first day of dosing, 2 p.m."}, "[7]": {"settings": "GMI 13004 diet, individual animals, first day of dosing, about 8 a.m. (baseline)"}, "[8]": {"settings": "GMI 13004 diet, individual animals, fourth day of dosing, 8 a.m."}, "[9]": {"settings": "GMI 13004 diet, individual animals, last day of dosing, 2 p.m."}, "[10]": {"settings": "GMI 13004 diet, individual animals, last day of dosing, 8 a.m."}}, "note": "Values joined by “and” are separate entries in the source; they are usually repeats but may differ in a detail not shown here. Equal entries are not always repeated."}
{"molecule": "CCc1ccc(C2=CC(C)(C)Sc3ccc(C#Cc4ccc(C(=O)O)cc4)cc32)cc1", "note": "[Compound 1, 4-[[4-(4-ethylphenyl)-2,2-dimethyl-(2H)-thiochromen-6-yl]-ethynyl]-benzoic acid]", "values": [{"measurement": "effect on lowering serum cholesterol", "value": "more modest effect"}, {"measurement": "serum triglycerides as % of pre-treatment levels", "value": "about 7%"}, {"measurement": "Cholesterol day 1, 6 hr, Mean", "setting": "[1]", "value": 107}, {"measurement": "Triglycerides day 1, 6 hr, Mean", "setting": "[1]", "value": 1183}, {"measurement": "Cholesterol day 1, 0 hr, Mean", "setting": "[2]", "value": 131}, {"measurement": "Triglycerides day 1, 0 hr, Mean", "setting": "[2]", "value": 1410}, {"measurement": "Cholesterol day 4, 0 hr, Mean", "setting": "[3]", "value": 82}, {"measurement": "Triglycerides day 4, 0 hr, Mean", "setting": "[3]", "value": 138}, {"measurement": "Cholesterol day 7, 6 hr, Mean", "setting": "[4]", "value": 90}, {"measurement": "Triglycerides day 7, 6 hr, Mean", "setting": "[4]", "value": 86}, {"measurement": "Cholesterol day 7, 0 hr, Mean", "setting": "[5]", "value": 89}, {"measurement": "Triglycerides day 7, 0 hr, Mean", "setting": "[5]", "value": 72}, {"measurement": "Cholesterol day 1, 6 hr", "setting": "[6]", "value": "132 and 90 (2×) and 126 and 96"}, {"measurement": "Triglycerides day 1, 6 hr", "setting": "[6]", "value": "1248 and 750 and 1674 and 978 and 1266"}, {"measurement": "Cholesterol day 1, 0 hr", "setting": "[7]", "value": "162 and 108 (2×) and 156 and 120"}, {"measurement": "Triglycerides day 1, 0 hr", "setting": "[7]", "value": "1770 and 1182 and 1500 and 1278 and 1320"}, {"measurement": "Cholesterol day 4, 0 hr", "setting": "[8]", "value": "78 and 90 (2×) and 84 and 66"}, {"measurement": "Triglycerides day 4, 0 hr", "setting": "[8]", "value": "174 and 132 and 114 and 102 and 168"}, {"measurement": "Cholesterol day 7, 6 hr", "setting": "[9]", "value": "102 and 72 and 132 and 48 and 96"}, {"measurement": "Triglycerides day 7, 6 hr", "setting": "[9]", "value": "96 and 66 and 60 (2×) and 150"}, {"measurement": "Cholesterol day 7, 0 hr", "setting": "[10]", "value": "96 (2×) and 84 and 66 and 102"}, {"measurement": "Triglycerides day 7, 0 hr", "setting": "[10]", "value": "78 and 96 and 60 (2×) and 66"}]}
